Where two headings read alike, the source gives them in different places.
Assays:
ABL1 = molecular target: T1, ABL1 (Homo sapiens, UniProt P00519); experiment: ADP-Glo kinase assay; format: biochemical
T1 construct: commercial enzyme of Promega kinase assay

ERK2 (MAPK1) = molecular target: T2, ERK2 (MAPK1) (Homo sapiens, UniProt P28482); experiment: ADP-Glo kinase assay; format: biochemical; settings: read-out: IC50 value (μM) ± SD / ERK2
T2 construct: commercial enzyme of Promega kinase assay
Text: ADP-Glo kinase assay on ERK2 (MAPK1)

MAPK14 (MAPK14/p38α) = molecular target: T3, MAPK14 (MAPK14/p38α) (Homo sapiens, UniProt Q16539); experiment: ADP-Glo kinase assay; format: biochemical; settings: read-out: IC50 value (μM) ± SD / MAPK14
T3 construct: commercial enzyme of Promega kinase assay

[1] = molecular target: T4, MAPK14 (wild-type, His-tagged, pET28a) (Homo sapiens, UniProt Q16539); experiment: isothermal titration calorimetry; format: binding
T4 construct: wild type, pET28a vector, His tag conserved for ITC and TSA

[2] = molecular target: T4, MAPK14 (wild-type, His-tagged, pET28a); experiment: fluorescence thermal shift assay; format: binding; settings: read-out: dTm
[3] = read-out: IC50 value (μM) ± SD / ABL1

T1 sequence (P00519 whole entry): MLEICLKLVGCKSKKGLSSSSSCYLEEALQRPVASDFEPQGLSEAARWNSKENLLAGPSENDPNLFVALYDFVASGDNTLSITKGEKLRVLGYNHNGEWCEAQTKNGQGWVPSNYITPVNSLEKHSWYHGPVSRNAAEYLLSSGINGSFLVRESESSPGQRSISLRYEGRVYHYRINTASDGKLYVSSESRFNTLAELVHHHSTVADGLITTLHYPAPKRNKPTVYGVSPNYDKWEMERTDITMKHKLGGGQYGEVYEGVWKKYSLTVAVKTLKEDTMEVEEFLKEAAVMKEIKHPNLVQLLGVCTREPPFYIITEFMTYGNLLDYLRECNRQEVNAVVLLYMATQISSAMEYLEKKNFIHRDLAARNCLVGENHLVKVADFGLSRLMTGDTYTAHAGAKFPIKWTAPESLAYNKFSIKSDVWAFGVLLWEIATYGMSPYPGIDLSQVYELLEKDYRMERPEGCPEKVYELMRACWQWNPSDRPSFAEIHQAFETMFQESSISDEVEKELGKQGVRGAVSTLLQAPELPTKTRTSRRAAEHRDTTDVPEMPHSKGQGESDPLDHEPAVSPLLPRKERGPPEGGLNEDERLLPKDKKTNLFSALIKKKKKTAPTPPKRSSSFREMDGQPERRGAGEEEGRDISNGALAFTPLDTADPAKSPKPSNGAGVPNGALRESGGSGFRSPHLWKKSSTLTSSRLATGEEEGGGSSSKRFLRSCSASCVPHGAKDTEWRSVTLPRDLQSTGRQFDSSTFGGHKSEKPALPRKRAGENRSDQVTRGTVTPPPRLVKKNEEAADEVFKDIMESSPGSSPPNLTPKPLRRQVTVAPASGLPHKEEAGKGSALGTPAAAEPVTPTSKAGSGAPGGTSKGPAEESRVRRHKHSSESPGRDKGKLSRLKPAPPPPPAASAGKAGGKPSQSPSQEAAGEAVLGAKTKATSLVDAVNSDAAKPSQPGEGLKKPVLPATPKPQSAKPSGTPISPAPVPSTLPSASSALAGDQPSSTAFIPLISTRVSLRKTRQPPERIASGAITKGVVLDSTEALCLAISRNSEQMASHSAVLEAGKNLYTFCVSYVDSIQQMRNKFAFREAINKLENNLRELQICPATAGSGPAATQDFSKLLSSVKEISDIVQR
T2 sequence (P28482 2-360): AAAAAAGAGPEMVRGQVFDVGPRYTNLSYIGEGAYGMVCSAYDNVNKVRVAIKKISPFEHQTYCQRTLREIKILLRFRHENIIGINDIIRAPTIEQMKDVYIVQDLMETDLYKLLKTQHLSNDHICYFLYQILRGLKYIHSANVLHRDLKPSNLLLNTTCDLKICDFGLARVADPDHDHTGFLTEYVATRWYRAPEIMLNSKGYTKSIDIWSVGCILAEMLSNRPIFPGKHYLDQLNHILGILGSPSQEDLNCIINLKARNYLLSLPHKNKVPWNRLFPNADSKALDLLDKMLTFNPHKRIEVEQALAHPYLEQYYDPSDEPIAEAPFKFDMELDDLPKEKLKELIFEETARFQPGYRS
T3 sequence (Q16539 2-360): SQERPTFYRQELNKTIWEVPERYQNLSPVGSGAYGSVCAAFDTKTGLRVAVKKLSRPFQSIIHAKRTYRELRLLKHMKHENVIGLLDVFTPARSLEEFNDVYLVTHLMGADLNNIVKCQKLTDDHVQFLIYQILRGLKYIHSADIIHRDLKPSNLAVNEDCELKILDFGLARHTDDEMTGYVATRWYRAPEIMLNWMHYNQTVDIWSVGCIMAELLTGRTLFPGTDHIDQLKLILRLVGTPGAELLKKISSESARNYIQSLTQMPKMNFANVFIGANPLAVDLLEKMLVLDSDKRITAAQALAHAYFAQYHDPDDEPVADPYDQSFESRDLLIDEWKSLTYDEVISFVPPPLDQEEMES
T4 sequence (Q16539 whole entry): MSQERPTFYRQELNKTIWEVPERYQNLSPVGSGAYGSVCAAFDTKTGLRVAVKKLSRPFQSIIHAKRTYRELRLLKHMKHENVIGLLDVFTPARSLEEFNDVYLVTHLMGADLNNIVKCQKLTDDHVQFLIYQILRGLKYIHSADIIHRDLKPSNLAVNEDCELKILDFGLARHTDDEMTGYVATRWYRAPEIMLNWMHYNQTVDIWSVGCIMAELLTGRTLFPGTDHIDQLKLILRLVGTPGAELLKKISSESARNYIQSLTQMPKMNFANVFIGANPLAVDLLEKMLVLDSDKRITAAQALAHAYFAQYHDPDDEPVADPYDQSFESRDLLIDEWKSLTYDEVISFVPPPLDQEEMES

Row | SMILES | IC50 (ABL1; read-out: IC50) | IC50 (ERK2 (MAPK1)) | IC50 (MAPK14 (MAPK14/p38α)) | IC50 (ABL1; [3]) | Kd [1] | ΔTm at 50 µM [2]
1 | COC(=O)Nc1nc2ccc(C(=O)c3cccs3)cc2[nH]1 [Nocodazole] | 0.078 ± 0.034 µM | 26.9 ± 16.2 µM | 2.8 ± 5.6 µM |  |  | 
2 | CCCSc1ccc2nc(NC(=O)OC)[nH]c2c1 [Albendazole] |  | 3.4 ± 1.5 µM | > 50 µM | 0.9 ± 0.6 µM |  | 
3 | COC(=O)Nc1nc2ccc(Sc3ccccc3)cc2[nH]1 [Fenbendazole] |  | > 50 µM | 10.7 ± 4.9 µM | 0.19 ± 0.07 µM |  | 
4 | COC(=O)Nc1nc2cc(C(=O)c3ccc(F)cc3)ccc2[nH]1 [Flubendazole] |  | 15.9 ± 8 µM | 5.5 ± 2.7 µM | 0.11 ± 0.05 µM |  | 
5 | COC(=O)Nc1nc2ccc(C(=O)c3ccccc3)cc2[nH]1 [Mebendazole] |  | 24.7 ± 10.4 µM |  | 0.35 ± 0.12 µM | 1270 ± 20 nM | 3.7 °C

From publication PMC7718943, “In silico molecular target prediction unveils mebendazole as a potent MAPK14 inhibitor” (Molecular Oncology, 2020)
